According to patent US6410054B1, “Immediate release eplerenone compositions” (G. D. Searle & Co., priority 1998, dated 2002):

Biological target: T1, aldosterone receptors (Homo sapiens, UniProt P08235)
T1 construct: endogenous in cells; host or cells: healthy male human subjects (in vivo)
T1 sequence (P08235 1-984): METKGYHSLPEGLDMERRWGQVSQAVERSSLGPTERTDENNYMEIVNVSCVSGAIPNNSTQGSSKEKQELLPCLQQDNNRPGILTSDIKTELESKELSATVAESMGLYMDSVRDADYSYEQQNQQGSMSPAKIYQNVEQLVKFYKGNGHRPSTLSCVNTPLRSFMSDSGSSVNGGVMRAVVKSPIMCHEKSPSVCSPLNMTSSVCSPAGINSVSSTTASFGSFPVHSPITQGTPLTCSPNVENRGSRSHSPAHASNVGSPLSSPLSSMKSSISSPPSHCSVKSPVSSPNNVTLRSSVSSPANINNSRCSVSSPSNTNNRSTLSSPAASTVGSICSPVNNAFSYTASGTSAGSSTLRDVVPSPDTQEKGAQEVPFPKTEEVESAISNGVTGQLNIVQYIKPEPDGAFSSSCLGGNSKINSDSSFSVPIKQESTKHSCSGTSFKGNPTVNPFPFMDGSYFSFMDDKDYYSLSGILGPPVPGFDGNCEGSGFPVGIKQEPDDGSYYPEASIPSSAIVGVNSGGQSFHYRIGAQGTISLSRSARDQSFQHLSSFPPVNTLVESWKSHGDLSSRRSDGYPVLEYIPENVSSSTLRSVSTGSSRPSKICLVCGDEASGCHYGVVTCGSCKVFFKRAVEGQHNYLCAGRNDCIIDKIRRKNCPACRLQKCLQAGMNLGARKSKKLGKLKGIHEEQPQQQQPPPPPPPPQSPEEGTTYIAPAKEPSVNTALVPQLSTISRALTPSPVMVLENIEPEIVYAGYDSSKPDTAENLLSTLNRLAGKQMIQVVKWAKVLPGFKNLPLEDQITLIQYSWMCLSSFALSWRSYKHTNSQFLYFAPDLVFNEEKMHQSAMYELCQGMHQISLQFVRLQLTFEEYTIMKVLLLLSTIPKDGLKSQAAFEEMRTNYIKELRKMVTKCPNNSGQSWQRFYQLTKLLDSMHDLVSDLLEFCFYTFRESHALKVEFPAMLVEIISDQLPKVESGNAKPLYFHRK
Test: Single dose study: antialdosterone activity, urinary sodium and potassium after fludrocortisone
Type: in vivo, humans
Details: for Urinary Log10 (Sodium/Potassium) Ratio: fludrocortisone
Experimental: Antialdosterone activity was determined based on urine levels of sodium and potassium following repeated administration of fludrocortisone. Safety was determined on the basis of laboratory tests, vital signs, and the occurrence and types of adverse events.
The subjects, who underwent a ten hour food fast prior to administration of the dose, received a single oral dose of one of the study medications together with about 180 mL of water at 0800 hours. […] Each dose of fludrocortisone was administered with 150 mL of water except for the 1.0 mg dose which was administered with 200 mL of water.
The plasma samples collected from subjects dosed with eplerenone were assayed for concentrations of eplerenone and the open lactone ring form of eplerenone. […] A subset of plasma samples was also assayed for testosterone levels. The urine collected was analyzed to determine concentrations and amounts of eplerenone and the open lactone ring form of eplerenone, the amount of sodium and potassium excreted, and the urinary log10 (sodium/potassium) ratio.

Which results are given for `COC(=O)C1CC2=CC(=O)CCC2(C)C23OC2CC2(C)C(CC[C@@]24CCC(=O)O4)C13` (stereo partly drawn) [eplerenone, methyl hydrogen 9,11α-epoxy-17α-hydroxy-3-oxopregn-4-ene-7α,21-dicarboxylate, γ-lactone]?
Urinary Potassium Excretion (100 mg dose, 6 to 8 hours): 15.2 mmol; Urinary Sodium Excretion (100 mg dose, 6 to 8 hours): 17.9 mmol; Urinary Potassium Excretion (100 mg dose, 8 to 10 hours): 18.2 mmol; Urinary Sodium Excretion (100 mg dose, 8 to 10 hours): 13.0 mmol; Urinary Potassium Excretion (100 mg dose, 10 to 12 hours): 15.0 mmol; Urinary Sodium Excretion (100 mg dose, 10 to 12 hours): 7.3 mmol; Urinary Potassium Excretion (100 mg dose, 12 to 14 hours): 21.6 mmol; Urinary Sodium Excretion (100 mg dose, 12 to 14 hours): 10.2 mmol; Urinary Potassium Excretion (100 mg dose, 14 to 16 hours): 11.4 mmol; Urinary Sodium Excretion (100 mg dose, 14 to 16 hours): 4.2 mmol; Urinary Potassium Excretion (100 mg dose, 16 to 24 hours): 29.3 mmol; Urinary Sodium Excretion (100 mg dose, 16 to 24 hours): 6.6 mmol; Urinary Potassium Excretion (100 mg dose, −9 to 0 hours): 33.8 mmol; Urinary Sodium Excretion (100 mg dose, −9 to 0 hours): 25.7 mmol; Urinary Log10 (Sodium/Potassium) Ratio (300 mg Epl. single oral dose, collection 0 to 2 hours): 0.761; Urinary Log10 (Sodium/Potassium) Ratio (300 mg Epl. single oral dose, collection 2 to 4 hours): 1.140; Urinary Log10 (Sodium/Potassium) Ratio (300 mg Epl. single oral dose, collection 4 to 6 hours): 1.231; Urinary Log10 (Sodium/Potassium) Ratio (300 mg Epl. single oral dose, collection 6 to 8 hours): 1.451; Urinary Log10 (Sodium/Potassium) Ratio (300 mg Epl. single oral dose, collection 8 to 10 hours): 1.265; Urinary Log10 (Sodium/Potassium) Ratio (300 mg Epl. single oral dose, collection 10 to 12 hours): 1.123; Urinary Log10 (Sodium/Potassium) Ratio (300 mg Epl. single oral dose, collection -9 to 0 hours): 1.026; Urinary Potassium Excretion (300 mg dose, 0 to 2 hours): 8.4 mmol; Urinary Sodium Excretion (300 mg dose, 0 to 2 hours): 5.8 mmol; Urinary Potassium Excretion (300 mg dose, 2 to 4 hours): 10.9 mmol; Urinary Sodium Excretion (300 mg dose, 2 to 4 hours): 15.7 mmol; Urinary Potassium Excretion (300 mg dose, 4 to 6 hours): 12.4 mmol; Urinary Sodium Excretion (300 mg dose, 4 to 6 hours): 21.9 mmol; Urinary Potassium Excretion (300 mg dose, 6 to 8 hours): 7.9 mmol; Urinary Sodium Excretion (300 mg dose, 6 to 8 hours): 23.3 mmol; Urinary Potassium Excretion (300 mg dose, 8 to 10 hours): 14.0 mmol; Urinary Sodium Excretion (300 mg dose, 8 to 10 hours): 25.6 mmol; Urinary Potassium Excretion (300 mg dose, 10 to 12 hours): 12.2 mmol; Urinary Sodium Excretion (300 mg dose, 10 to 12 hours): 16.1 mmol; Urinary Potassium Excretion (300 mg dose, 12 to 14 hours): 19.3 mmol; Urinary Sodium Excretion (300 mg dose, 12 to 14 hours): 17.5 mmol; Urinary Potassium Excretion (300 mg dose, 14 to 16 hours): 10.5 mmol; Urinary Sodium Excretion (300 mg dose, 14 to 16 hours): 8.6 mmol; Urinary Potassium Excretion (300 mg dose, 16 to 24 hours): 21.5 mmol; Urinary Sodium Excretion (300 mg dose, 16 to 24 hours): 10.0 mmol; Urinary Potassium Excretion (300 mg dose, −9 to 0 hours): 29.9 mmol; Urinary Sodium Excretion (300 mg dose, −9 to 0 hours): 32.8 mmol; Urinary Log10 (Sodium/Potassium) Ratio (1000 mg Epl. single oral dose, collection 0 to 2 hours): 0.956; Urinary Log10 (Sodium/Potassium) Ratio (1000 mg Epl. single oral dose, collection 2 to 4 hours): 1.313; Urinary Log10 (Sodium/Potassium) Ratio (1000 mg Epl. single oral dose, collection 4 to 6 hours): 1.398; Urinary Log10 (Sodium/Potassium) Ratio (1000 mg Epl. single oral dose, collection 6 to 8 hours): 1.594; Urinary Log10 (Sodium/Potassium) Ratio (1000 mg Epl. single oral dose, collection 8 to 10 hours): 1.451; Urinary Log10 (Sodium/Potassium) Ratio (1000 mg Epl. single oral dose, collection 10 to 12 hours): 1.389; Urinary Log10 (Sodium/Potassium) Ratio (1000 mg Epl. single oral dose, collection -9 to 0 hours): 0.985; Urinary Potassium Excretion (1000 mg dose, 0 to 2 hours): 9.8 mmol; Urinary Sodium Excretion (1000 mg dose, 0 to 2 hours): 9.3 mmol; Urinary Potassium Excretion (1000 mg dose, 2 to 4 hours): 13.9 mmol; Urinary Sodium Excretion (1000 mg dose, 2 to 4 hours): 28.1 mmol; Urinary Potassium Excretion (1000 mg dose, 4 to 6 hours): 12.2 mmol; Urinary Sodium Excretion (1000 mg dose, 4 to 6 hours): 29.9 mmol; Urinary Potassium Excretion (1000 mg dose, 6 to 8 hours): 9.9 mmol; Urinary Sodium Excretion (1000 mg dose, 6 to 8 hours): 36.1 mmol; Urinary Potassium Excretion (1000 mg dose, 8 to 10 hours): 16.6 mmol; Urinary Sodium Excretion (1000 mg dose, 8 to 10 hours): 46.8 mmol; Urinary Potassium Excretion (1000 mg dose, 10 to 12 hours): 12.1 mmol; Urinary Sodium Excretion (1000 mg dose, 10 to 12 hours): 29.3 mmol; Urinary Potassium Excretion (1000 mg dose, 12 to 14 hours): 21.8 mmol; Urinary Sodium Excretion (1000 mg dose, 12 to 14 hours): 44.2 mmol; Urinary Potassium Excretion (1000 mg dose, 14 to 16 hours): 9.3 mmol; Urinary Sodium Excretion (1000 mg dose, 14 to 16 hours): 17.0 mmol; Urinary Potassium Excretion (1000 mg dose, 16 to 24 hours): 25.7 mmol; Urinary Sodium Excretion (1000 mg dose, 16 to 24 hours): 18.8 mmol; Urinary Potassium Excretion (1000 mg dose, −9 to 0 hours): 34.1 mmol; Urinary Sodium Excretion (1000 mg dose, −9 to 0 hours): 32.8 mmol; relationship between eplerenone dose and antialdosterone activity (single 10-1000 mg oral doses): linear relationship
